Data taken from PubChem BioAssay AID1259411 (Chemical Carcinogenesis Research Information System (CCRIS), 2018).
Active and inactive are the calls of the source. The rule behind the calls is not given here.

Tested on: rodent carcinogenicity bioassays, tumor incidence
Assay: CCRIS carcinogenicity studies
Details: Route: INHALATION
Outline: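 NCI-built, expert-reviewed records of carcinogenicity and related test outcomes (mutagenicity, tumor promotion/inhibition) compiled from published and report sources, historical span 1985-2011, not updated.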

## C=CC=C
Species: MOUSE, Strain/Sex: B6C3F1/FEMALE, Dose: 0, 6.25, 20, 62.5, 200, 625 PPM 6 HR/D 5 D/WK FOR 2 YR (STUDY DURATION: 2 YR), Dose: 0, 6.25, 20, 62.5, 200, 625 PPM 6 HR/D 5 D/WK FOR 2 YR (STUDY DURATION: 2 YR), Tumor Site: Type of Lesion: HARDERIAN GLAND: ADENOMA OR ADENOCARCINOMA, LIVER: HEPATOCELLULAR CARCINOMA, MAMMARY GLAND: ADENOCARCINOMA, OVARIES: GRA, Tumor Site: Type of Lesion: HARDERIAN GLAND: ADENOMA OR ADENOCARCINOMA, LIVER: HEPATOCELLULAR CARCINOMA, MAMMARY GLAND: ADENOCARCINOMA, OVARIES: GRA
  carcinogen call: active; positive
Species: MOUSE, Strain/Sex: B6C3F1/FEMALE, Dose: 0, 6.25, 20, 62.5, 200, 625 PPM 6 HR/D 5 D/WK FOR 2 YR (STUDY DURATION: 2 YR), Dose: 0, 6.25, 20, 62.5, 200, 625 PPM 6 HR/D 5 D/WK FOR 2 YR (STUDY DURATION: 2 YR), Tumor Site: Type of Lesion: HEMATOPOIETIC SYSTEM: LYMPHOCYTIC LYMPHOMA, LYMPHOMA, BLOOD VESSELS: HEMANGIOSARCOMA, LUNG: ALVEOLAR/BRONCHIOLAR TUMOR;, Tumor Site: Type of Lesion: HEMATOPOIETIC SYSTEM: LYMPHOCYTIC LYMPHOMA, LYMPHOMA, BLOOD VESSELS: HEMANGIOSARCOMA, LUNG: ALVEOLAR/BRONCHIOLAR TUMOR
  carcinogen call: active; positive
Species: MOUSE, Strain/Sex: B6C3F1/FEMALE, Dose: 0, 6.25, 20, 62.5, 200, 625 PPM 6 HR/D 5 D/WK FOR 103 WK (STUDY DURATION: 2 YR), Dose: 0, 6.25, 20, 62.5, 200, 625 PPM 6 HR/D 5 D/WK FOR 103 WK (STUDY DURATION: 2 YR), Tumor Site: Type of Lesion: HEART: HEMANGIOSARCOMA, LUNG: ALVEOLAR/BRONCHIOLAR ADENOMA, ADENOCARCINOMA OR CARCINOMA, FORESTOMACH: SQUAMOUS CELL PAPI, Tumor Site: Type of Lesion: HEART: HEMANGIOSARCOMA, LUNG: ALVEOLAR/BRONCHIOLAR ADENOMA, ADENOCARCINOMA OR CARCINOMA, FORESTOMACH: SQUAMOUS CELL PAPI
  carcinogen call: active; positive
Species: MOUSE, Strain/Sex: B6C3F1/FEMALE, Dose: 0, 6.25, 20, 62.5, 200 PPM 6 HR/D 5 D/WK FOR 65 WK (STUDY DURATION: 104 WK), Dose: 0, 6.25, 20, 62.5, 200 PPM 6 HR/D 5 D/WK FOR 65 WK (STUDY DURATION: 104 WK), Tumor Site: Type of Lesion: HEART: HEMANGIOSARCOMA, LUNG: ALVEOLAR/BRONCHIOLAR TUMOR, MAMMARY GLAND: ADENOCARCINOMA, OVARY: GRANULOSA CELL TUMOR, Tumor Site: Type of Lesion: HEART: HEMANGIOSARCOMA, LUNG: ALVEOLAR/BRONCHIOLAR TUMOR, MAMMARY GLAND: ADENOCARCINOMA, OVARY: GRANULOSA CELL TUMOR
  carcinogen call: active; positive
Species: MOUSE, Strain/Sex: B6C3F1/FEMALE, Dose: 0, 1000, 5000, 10000 PPM FOR 2 HR ONCE (STUDY DURATION: 2 YR), Dose: 0, 1000, 5000, 10000 PPM FOR 2 HR ONCE (STUDY DURATION: 2 YR)
  carcinogen call: inactive; negative
Species: MOUSE, Strain/Sex: B6C3F1/FEMALE, Dose: 625, 1250 PPM 6 HR/D 5/WK FOR 61 WK, Tumor Site: Type of Lesion: LYMPHATIC SYSTEM: MALIGNANT LYMPHOMA, LUNG: ALVEOLAR/BRONCHIOLAR ADENOMA, CARCINOMA, MYOCARDIUM: HEMANGIOSARCOMA, FOREST, Tumor Site: Type of Lesion: LYMPHATIC SYSTEM: MALIGNANT LYMPHOMA, LUNG: ALVEOLAR/BRONCHIOLAR ADENOMA, CARCINOMA, MYOCARDIUM: HEMANGIOSARCOMA, FOREST
  carcinogen call: active; positive
Species: MOUSE, Strain/Sex: B6C3F1/MALE, Dose: 0, 6.25, 20, 62.5, 200, 625 PPM 6 HR/D 5 D/WK FOR 2 YR (STUDY DURATION: 2 YR), Dose: 0, 6.25, 20, 62.5, 200, 625 PPM 6 HR/D 5 D/WK FOR 2 YR (STUDY DURATION: 2 YR), Tumor Site: Type of Lesion: HEMATOPOIETIC SYSTEM: LYMPHOCYTIC LYMPHOMA, LYMPHOMA, BLOOD VESSELS: HEMANGIOSARCOMA, LUNG: ALVEOLAR/BRONCHIOLAR TUMOR;, Tumor Site: Type of Lesion: HEMATOPOIETIC SYSTEM: LYMPHOCYTIC LYMPHOMA, LYMPHOMA, BLOOD VESSELS: HEMANGIOSARCOMA, LUNG: ALVEOLAR/BRONCHIOLAR TUMOR
  carcinogen call: active; positive
Species: MOUSE, Strain/Sex: B6C3F1/MALE, Dose: 0, 6.25, 20, 62.5, 200, 625 PPM 6 HR/D 5 D/WK FOR 2 YR (STUDY DURATION: 2 YR), Dose: 0, 6.25, 20, 62.5, 200, 625 PPM 6 HR/D 5 D/WK FOR 2 YR (STUDY DURATION: 2 YR), Tumor Site: Type of Lesion: PREPUTIAL GLAND: ADENOMA OR CARCINOMA, LIVER: HEPATOCELLULAR TUMOR, HARDERIAN GLAND: TUMOR, Tumor Site: Type of Lesion: PREPUTIAL GLAND: ADENOMA OR CARCINOMA, LIVER: HEPATOCELLULAR TUMOR, HARDERIAN GLAND: TUMOR
  carcinogen call: active; positive
Species: MOUSE, Strain/Sex: B6C3F1/MALE, Dose: 0, 6.25, 20, 62.5, 200, 625 PPM 6 HR/D 5 D/WK FOR 103 WK (STUDY DURATION: 2 YR), Dose: 0, 6.25, 20, 62.5, 200, 625 PPM 6 HR/D 5 D/WK FOR 103 WK (STUDY DURATION: 2 YR), Tumor Site: Type of Lesion: HEART: HEMANGIOSARCOMA, LUNG: ALVEOLAR/BRONCHIOLAR ADENOMA, ADENOCARCINOMA OR CARCINOMA, FORESTOMACH: SQUAMOUS CELL PAPI, Tumor Site: Type of Lesion: HEART: HEMANGIOSARCOMA, LUNG: ALVEOLAR/BRONCHIOLAR ADENOMA, ADENOCARCINOMA OR CARCINOMA, FORESTOMACH: SQUAMOUS CELL PAPI
  carcinogen call: active; positive
Species: MOUSE, Strain/Sex: B6C3F1/MALE, Dose: 0, 6.25, 20, 62.5, 200 PPM, 6 HR/D 5 D/WK FOR 65 WK (STUDY DURATION: 104 WK), Dose: 0, 6.25, 20, 62.5, 200 PPM, 6 HR/D 5 D/WK FOR 65 WK (STUDY DURATION: 104 WK), Tumor Site: Type of Lesion: HEART: HEMANGIOSARCOMA, LUNG: ALVEOLAR/BRONCHIOLAR TUMOR, HARDERIAN GLAND: ADENOMA, Tumor Site: Type of Lesion: HEART: HEMANGIOSARCOMA, LUNG: ALVEOLAR/BRONCHIOLAR TUMOR, HARDERIAN GLAND: ADENOMA
  carcinogen call: active; positive
Species: MOUSE, Strain/Sex: B6C3F1/MALE, Dose: 0, 200 PPM 6 HR/D 5 D/WK FOR 40 WK, 625 PPM FOR 13 WK, 312 PPM FOR 52 WK OR 625 PPM FOR 26 WK FOLLOWED BY CONTROL CHAMBE, Dose: 0, 200 PPM 6 HR/D 5 D/WK FOR 40 WK, 625 PPM FOR 13 WK, 312 PPM FOR 52 WK OR 625 PPM FOR 26 WK FOLLOWED BY CONTROL CHAMBE, Tumor Site: Type of Lesion: HEART: HEMANGIOSARCOMA, LUNG: ALVEOLAR/BRONCHIOLAR ADENOMA, ADENOCARCINOMA OR CARCINOMA, FORESTOMACH: SQUAMOUS CELL PAPI, Tumor Site: Type of Lesion: HEART: HEMANGIOSARCOMA, LUNG: ALVEOLAR/BRONCHIOLAR ADENOMA, ADENOCARCINOMA OR CARCINOMA, FORESTOMACH: SQUAMOUS CELL PAPI
  carcinogen call: active; positive
Species: MOUSE, Strain/Sex: B6C3F1/MALE, Dose: 0, 1000, 5000, 10000 PPM FOR 2 HR ONCE (STUDY DURATION: 2 YR), Dose: 0, 1000, 5000, 10000 PPM FOR 2 HR ONCE (STUDY DURATION: 2 YR)
  carcinogen call: inactive; negative
Species: MOUSE, Strain/Sex: B6C3F1/MALE, Dose: 625, 1250 PPM 6 HR/D 5/WK FOR 60 WK, Tumor Site: Type of Lesion: LYMPHATIC SYSTEM: MALIGNANT LYMPHOMA, LUNG: ALVEOLAR/BRONCHIOLAR ADENOMA, CARCINOMA, MYOCARDIUM: HEMANGIOSARCOMA, FOREST, Tumor Site: Type of Lesion: LYMPHATIC SYSTEM: MALIGNANT LYMPHOMA, LUNG: ALVEOLAR/BRONCHIOLAR ADENOMA, CARCINOMA, MYOCARDIUM: HEMANGIOSARCOMA, FOREST
  carcinogen call: active; positive
Species: RAT, Strain/Sex: SPRAGUE-DAWLEY/FEMALE, Dose: 0, 1000, 8000 PPM 6 HR/D 5 D/WK FOR 105 WK (STUDY DURATION: 105 WK), Dose: 0, 1000, 8000 PPM 6 HR/D 5 D/WK FOR 105 WK (STUDY DURATION: 105 WK), Tumor Site: Type of Lesion: UTERUS: SARCOMA, MAMMARY GLAND: ADENOMA, ZYMBAL GLAND: CARCINOMA, THYROID GLAND: FOLLICULAR CELL ADENOMA, Tumor Site: Type of Lesion: UTERUS: SARCOMA, MAMMARY GLAND: ADENOMA, ZYMBAL GLAND: CARCINOMA, THYROID GLAND: FOLLICULAR CELL ADENOMA
  carcinogen call: active; positive
Species: RAT, Strain/Sex: SPRAGUE-DAWLEY/MALE, Dose: 0, 1000, 8000 PPM 6 HR/D 5 D/WK FOR 111 WK (STUDY DURATION: 111 WK), Dose: 0, 1000, 8000 PPM 6 HR/D 5 D/WK FOR 111 WK (STUDY DURATION: 111 WK), Tumor Site: Type of Lesion: PANCREAS: ACINAR CELL ADENOMA, TESTES: LEYDIG CELL TUMOR
  carcinogen call: active; positive
